Experimental data taken from patent publication US6727263B2, “Indole and 2,3-dihydroindole derivatives, their preparation and use” (H. Lundbeck A/S, priority 1997, dated 2004).
Where a name gives a salt, the structure may show the parent alone.

Structure (SMILES) | melting point
Clc1ccc2ccn(CCN3CCN(c4cccc5c4OCCO5)CC3)c2c1.O=C(O)C(=O)O | 234 to 235 °C
Fc1ccc2[nH]cc(CCN3CCC(c4cccc5ccoc45)CC3)c2c1.O=C(O)C(=O)O | 191 to 194 °C
Brc1ccc2[nH]cc(CCN3CC=C(c4cccc5ccoc45)CC3)c2c1.O=C(O)C(=O)O | 185 to 194 °C
C#CCn1cc(CCN2CCN(c3cccc4c3OCCO4)CC2)c2ccccc21.O=C(O)C(=O)O | 168 to 172 °C
CC1(C)Cc2cccc(C3=CCN(CCc4c[nH]c5cc(Cl)ccc45)CC3)c2O1 (as salt: oxalate) [Compound 1g, 6-Chloro-3-[2-[4-(2,2,-dimethyl-2,3,-dihydrohydrobenzofuran-7-yl)-1,2,3,6-tetrahydro-1-pyridyl]ethyl]-1H-indole oxalate] | 200 to 204 °C
Clc1ccc2c(ccn2CCN2CCN(c3cccc4c3OCCO4)CC2)c1.O=C(O)C(=O)O | 234 to 235 °C
Brc1ccc2[nH]cc(CCN3CCC(c4cccc5ccoc45)CC3)c2c1.O=C(O)C(=O)O | 153 to 157 °C
CC1(C)Cc2cccc(N3CCN(CCc4c[nH]c5cc(Cl)ccc45)CC3)c2O1.O=C(O)/C=C/C(=O)O | 165 to 167 °C
Clc1ccc2[nH]cc(CCN3CCN(c4cccc5c4SCC=C5)CC3)c2c1 | 152 to 153 °C
Fc1ccc2[nH]cc(CCN3CCN(c4cccc5c4OCC5)CC3)c2c1.O=C(O)C(=O)O | 145 to 149 °C
C=CCn1cc(CCN2CCN(c3cccc4c3OCCO4)CC2)c2ccccc21.O=C(O)C(=O)O | 187 to 190 °C
Clc1ccc2[nH]cc(CCN3CCN(c4cccc5ccsc45)CC3)c2c1.O=C(O)C(=O)O | 175.2 to 176.6 °C
O=C(O)C(=O)O.c1cc2c(c(N3CCN(CCn4ccc5ccccc54)CC3)c1)OCC2 | 223 to 226 °C
C=CCN1CC(CCN2CCN(c3cccc4c3OCCO4)CC2)c2ccccc21.O=C(O)C(=O)O (stereo not shown) | 133 to 136 °C
Fc1ccc2c(ccn2CCN2CCN(c3cccc4c3OCCO4)CC2)c1.O=C(O)C(=O)O | 230 to 231 °C
O=C(O)C(=O)O.c1cc2c(c(N3CCN(CCn4ccc5ccccc54)CC3)c1)OCCO2 | 225 to 229 °C
O=C(O)C(=O)O.c1ccc(CN2CC(CCN3CCN(c4cccc5c4OCCO5)CC3)c3ccccc32)cc1 (stereo not shown) | 158 to 165 °C
COc1ccc2[nH]cc(CCN3CCN(c4cccc5c4OCCO5)CC3)c2c1 (as salt: oxalate) [Compound 1i, 3-[2-[4-(1,4-Benzodioxan-5-yl)piperazin-1-y]ethyl]-5-methoxy-1H-indole hemioxalate] | 189 to 196 °C
Clc1ccc2c(c1)C(CCN1CCN(c3cccc4c3OCCO4)CC1)CN2.O=C(O)C(=O)O (stereo not shown) | 153 to 157 °C
Brc1ccc2[nH]cc(CCN3CCN(c4cccc5c4SCC=C5)CC3)c2c1 | 166 to 167 °C
CC1(C)Cc2cccc(C3CCN(CCc4c[nH]c5cc(Cl)ccc45)CC3)c2O1 (as salt: oxalate) [Compound 1f, 6-Chloro-3-[2-[4-(2,2, -dimethyl-2,3-dihydrobenzofuran-7-yl)piperidin-1-yl]ethyl]-1H-indole oxalate] | 190 to 193 °C
Clc1ccc2c(CCN3CCN(c4cccc5c4SCC=C5)CC3)c[nH]c2c1 [Compound 1t] | 178 to 179 °C
